Changes are numbered by the printed parent chain.
Columns and labels:
Settings in all cases: mean ± s.e.m., n=3
TauT G62A mutant = biological target: T1, TauT G62A mutant (Homo sapiens, UniProt P31641, G62A); experiment: MST binding, TauT G62A
T1 sequence (P31641 1-620 G62A): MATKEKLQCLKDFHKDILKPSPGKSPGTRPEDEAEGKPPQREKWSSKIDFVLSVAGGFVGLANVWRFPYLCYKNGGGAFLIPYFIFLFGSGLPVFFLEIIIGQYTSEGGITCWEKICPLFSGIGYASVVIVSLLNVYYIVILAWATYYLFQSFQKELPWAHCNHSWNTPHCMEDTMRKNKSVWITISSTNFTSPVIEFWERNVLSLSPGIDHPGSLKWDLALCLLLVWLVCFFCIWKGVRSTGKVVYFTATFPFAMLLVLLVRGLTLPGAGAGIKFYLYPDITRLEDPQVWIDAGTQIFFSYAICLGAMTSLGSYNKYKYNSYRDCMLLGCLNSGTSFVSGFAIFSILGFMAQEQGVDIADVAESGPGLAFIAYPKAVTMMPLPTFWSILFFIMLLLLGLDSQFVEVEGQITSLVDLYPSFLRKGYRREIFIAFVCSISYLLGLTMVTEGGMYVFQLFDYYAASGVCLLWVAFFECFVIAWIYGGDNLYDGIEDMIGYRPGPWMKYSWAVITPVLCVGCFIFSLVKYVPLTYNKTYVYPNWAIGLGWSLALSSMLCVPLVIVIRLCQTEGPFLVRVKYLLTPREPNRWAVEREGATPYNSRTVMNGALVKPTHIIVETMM

TauT Y138A mutant = biological target: T2, TauT Y138A mutant (Homo sapiens, UniProt P31641, Y138A); experiment: MST binding, TauT Y138A
T2 sequence (P31641 1-620 Y138A): T1 sequence (P31641 1-620 G62A) with A62G, Y138A

TauT F300A mutant = biological target: T3, TauT F300A mutant (Homo sapiens, UniProt P31641, F300A); experiment: MST binding, TauT F300A
T3 sequence (P31641 1-620 F300A): T1 sequence (P31641 1-620 G62A) with A62G, F300A

TauT E406A mutant = biological target: T4, TauT E406A mutant (Homo sapiens, UniProt P31641, E406A); experiment: MST binding, TauT E406A
T4 sequence (P31641 1-620 E406A): T1 sequence (P31641 1-620 G62A) with A62G, E406A

SMILES | Kd (MST) (TauT G62A mutant) | Kd (MST) (TauT Y138A mutant) | Kd (MST) (TauT F300A mutant) | Kd (MST) (TauT E406A mutant)
NCCCC(=O)O [GABA, γ-aminobutyric acid] | complete loss of the binding | complete loss of the binding | complete loss of the binding | reduces the binding affinity of GABA slightly
[H]/N=C(/N)NCC(=O)O [GAA, guanidinoacetate] | drastic loss of GAA binding affinity | drastic loss of GAA binding affinity | drastic loss of GAA binding affinity | only marginally weakened the binding affinity
NCCS(=O)(=O)O [Taurine, taurine] | – | undetectable binding | reduced the taurine binding to varying extents | reduced the taurine binding to varying extents

Reference: publication PMC12339982 (Nature Communications, 2025)
